pIC50: −log10 of the molar value. Values after ≈ are worked out from the molar mass of the structure shown.
What was measured:
Staphylococcus aureus = experiment: Antibacterial activity against Staphylococcus aureus ATCC 6538 by disk diffusion assay; type: functional
Plasmodium falciparum = experiment: Antimalarial activity against chloroquine-resistant Plasmodium falciparum FCB1 in human blood by [3H]hypoxanthine uptake; type: functional, organism-based

| MIC (Staphylococcus aureus) [µM] | SMILES | pIC50 (Plasmodium falciparum) |
| --- | --- | --- |
| 0.146 (≈ 0.0701 µg/mL) | CC(C)[C@@H]1C=C[C@H](O)[C@H]2[C@@H]3[C@](C)(O)[C@@H](O)C[C@H](Br)[C@@]3(C)CC[C@@]21CBr |  |
| 0.104 (≈ 0.0497 µg/mL) | CC(C)[C@@H]1C=CC(=O)[C@H]2[C@@H]3[C@](C)(O)[C@@H](O)C[C@H](Br)[C@@]3(C)CC[C@]12CBr [BROMOSPHAERONE] |  |
|  | CC(C)[C@@H]1CC=C[C@H]2[C@H]3[C@@](C)(C=CC(=O)[C@@]3(C)O)CC[C@]12CBr [SPHAEROCOCCENOL A] | 6.00 |

Source: ChEMBL document CHEMBL1155743, “New bromoditerpenes from the red alga Sphaerococcus coronopifolius” (J Nat Prod, 2001)
